According to patent US20020137929A1, “1 - (3-heterocyclylphenyl) isothiourea, -isourea, -guanidine and -amidine herbicidal agents” (Intellectual Property Department, BASF Aktiengesellschaft, priority 1998, published 2002):

Columns and labels:
ABUTH (Velvetleaf) = assay: Postemergence herbicidal evaluation; type: in vivo, Abutilon theophrasti; details: postemergence
Outline: (§1)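 Each compound, dispersed in an acetone/water mix (50/50) carrying 0.5% TWEEN 20, is nozzle-sprayed at 40 psi on approximately two-week-old seedlings at about 0.0156–0.500 kg/ha. Plants are assessed 4–5 weeks afterward on a 0–9 scale relative to control; duplicate tests are averaged.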

GALAP (Galium) = assay: Postemergence herbicidal evaluation; type: in vivo, Galium aparine; details: postemergence
Outline: as §1

ECHCG (Barnyardgrass) = assay: Postemergence herbicidal evaluation; type: in vivo, Echinochloa crus-galli; details: postemergence
Outline: as §1

SETVI (Foxtail, Green) = assay: Postemergence herbicidal evaluation; type: in vivo, Setaria viridis; details: postemergence
Outline: as §1

ORYSAT (Rice, Tebonnet) = assay: Postemergence herbicidal evaluation; type: in vivo, Oryza sativa, (L.) Tebonnet; details: postemergence
Outline: as §1

[1] = tested on: IPOHE (Morningglory, Ivyleaf); assay: Preemergence herbicidal evaluation; type: in vivo, Ipomoea hederacea; details: rated 4-5 weeks after treatment
Outline: (§2)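 Rating at 4–5 wk post-spray on a 0–9 visual scale vs control. Application: aqueous acetone, ~0.0156–0.500 kg/ha, to soil surface after seeding, preemergence.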

[2] = tested on: TRZAWR (Wheat, Winter, cv Riband); assay: Preemergence herbicidal evaluation; type: in vivo, Triticum aestivum; details: rated 4-5 weeks after treatment
Outline: as §2

ZEAMX (Corn, Field) = assay: Preemergence herbicidal evaluation; type: in vivo, Zea mays; details: rated 4-5 weeks after treatment
Outline: as §2

[3] = tested on: ECHORC (Watergrass (Calif.)); assay: Preemergence weed control under flooded paddy conditions; type: in vivo, Echinochloa oryzoides; details: rated 3-4 weeks after treatment
Outline: (§3)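 Seeds or propagules sown in top 0.5 cm of silt loam soil, flooded 1.5 to 3 cm above surface throughout. Compound in 50/50 v/v aqueous/acetone pipetted into flood water at about 0.0313 to 0.500 kg/ha. Visual 0-9 rating versus control after three to four weeks in greenhouse.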

CYPIR (Rice Flatsedge) = assay: as above; type: in vivo, Cyperus iria; details: rated 3-4 weeks after treatment
Outline: as §3

MOOVA (Monochoria) = assay: as above; type: in vivo, Monochoria vaginalis; details: rated 3-4 weeks after treatment
Outline: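 Ratings on a 0-9 visual scale cover stand, vigor, malformation, size, chlorosis and overall appearance relative to a control, taken three to four weeks post-treatment. Application was into flood water over freshly sown silt loam at roughly 0.0313 to 0.500 kg/ha.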

[4] = rate 0.0625 kg/ha, rating scale 0-9
[5] = rate 0.1250 kg/ha, rating scale 0-9
[6] = rate 0.2500 kg/ha, rating scale 0-9

SMILES: Cn1c(C(F)(F)F)cc(=O)n(-c2cc(N=C3SCC(=O)N3Cc3cccnc3)c(Cl)cc2F)c1=O [Compound 132, 3-{4-Chloro-2-fluoro-5-{[4-oxo-3-(3-pyridylmethyl)-2-thiazolidinylidene]amino}phenyl}-1-methyl-6-(trifluoromethyl)-2,4 (1H,3H)-pyrimidinedione]
- Herbicidal rating ABUTH (ABUTH (Velvetleaf); rate 0.0156 kg/ha): 9.0
- Herbicidal rating ABUTH (ABUTH (Velvetleaf); rate 0.0313 kg/ha): 9.0
- Herbicidal rating ABUTH (ABUTH (Velvetleaf); rate 0.0625 kg/ha): 9.0
- Herbicidal rating GALAP (GALAP (Galium); rate 0.0156 kg/ha): 2.0
- Herbicidal rating GALAP (GALAP (Galium); rate 0.0313 kg/ha): 2.0
- Herbicidal rating GALAP (GALAP (Galium); rate 0.0625 kg/ha): 3.0
- Herbicidal rating ECHCG (ECHCG (Barnyardgrass); rate 0.0156 kg/ha): 1.0
- Herbicidal rating ECHCG (ECHCG (Barnyardgrass); rate 0.0313 kg/ha): 2.0
- Herbicidal rating ECHCG (ECHCG (Barnyardgrass); rate 0.0625 kg/ha): 2.0
- Herbicidal rating SETVI (SETVI (Foxtail, Green); rate 0.0156 kg/ha): 1.0
- Herbicidal rating SETVI (SETVI (Foxtail, Green); rate 0.0313 kg/ha): 4.0
- Herbicidal rating SETVI (SETVI (Foxtail, Green); rate 0.0625 kg/ha): 3.0
- Herbicidal rating ORYSAT (ORYSAT (Rice, Tebonnet); rate 0.0156 kg/ha): 2.0
- Herbicidal rating ORYSAT (ORYSAT (Rice, Tebonnet); rate 0.0313 kg/ha): 3.0
- Herbicidal rating ORYSAT (ORYSAT (Rice, Tebonnet); rate 0.0625 kg/ha): 3.5
- Preemergence herbicidal rating IPOHE [1, 4]: 0.0
- Preemergence herbicidal rating IPOHE [1, 5]: 0.0
- Preemergence herbicidal rating IPOHE [1, 6]: 2.0
- Preemergence herbicidal rating TRZAWR [2, 4]: 0.0
- Preemergence herbicidal rating TRZAWR [2, 5]: 0.0
- Preemergence herbicidal rating TRZAWR [2, 6]: 1.0
- Preemergence herbicidal rating ZEAMX (ZEAMX (Corn, Field); [4]): 0.0
- Preemergence herbicidal rating ZEAMX (ZEAMX (Corn, Field); [5]): 0.0
- Preemergence herbicidal rating ZEAMX (ZEAMX (Corn, Field); [6]): 2.0
- herbicidal effect rating, ECHORC ([3]; 0.0313 kg/ha): 3.0
- herbicidal effect rating, ECHORC ([3]; 0.0625 kg/ha): 4.0
- herbicidal effect rating, ECHORC ([3]; 0.1250 kg/ha): 4.0
- herbicidal effect rating, ECHORC ([3]; 0.2500 kg/ha): 6.0
- herbicidal effect rating, CYPIR (CYPIR (Rice Flatsedge); 0.0313 kg/ha): 0.0
- herbicidal effect rating, CYPIR (CYPIR (Rice Flatsedge); 0.0625 kg/ha): 0.0
- herbicidal effect rating, CYPIR (CYPIR (Rice Flatsedge); 0.1250 kg/ha): 0.0
- herbicidal effect rating, CYPIR (CYPIR (Rice Flatsedge); 0.2500 kg/ha): 3.0
- herbicidal effect rating, MOOVA (MOOVA (Monochoria); 0.0313 kg/ha): 6.0
- herbicidal effect rating, MOOVA (MOOVA (Monochoria); 0.0625 kg/ha): 9.0
- herbicidal effect rating, MOOVA (MOOVA (Monochoria); 0.1250 kg/ha): 9.0
- herbicidal effect rating, MOOVA (MOOVA (Monochoria); 0.2500 kg/ha): 9.0

SMILES: CC(C)N1C(=O)CSC1=Nc1cc(-n2c(=O)cc(C(F)(F)F)n(C)c2=O)c(F)cc1Cl [Compound 164, 3-{4-Chloro-2-fluoro-5-[(3-isopropyl-4-oxo-2-thiazolidinylidene)amino]phenyl}-1-methyl-6-(trifluoromethyl)-2,4(1H,3H)-pyrimidinedione]
- Herbicidal rating ABUTH (ABUTH (Velvetleaf); rate 0.0156 kg/ha): 9.0
- Herbicidal rating ABUTH (ABUTH (Velvetleaf); rate 0.0313 kg/ha): 9.0
- Herbicidal rating ABUTH (ABUTH (Velvetleaf); rate 0.0625 kg/ha): 9.0
- Herbicidal rating ABUTH (ABUTH (Velvetleaf); rate 0.1250 kg/ha): 9.0
- Herbicidal rating GALAP (GALAP (Galium); rate 0.0156 kg/ha): 3.0
- Herbicidal rating GALAP (GALAP (Galium); rate 0.0313 kg/ha): 4.0
- Herbicidal rating GALAP (GALAP (Galium); rate 0.0625 kg/ha): 7.0
- Herbicidal rating GALAP (GALAP (Galium); rate 0.1250 kg/ha): 6.0
- Herbicidal rating ECHCG (ECHCG (Barnyardgrass); rate 0.0156 kg/ha): 2.0
- Herbicidal rating ECHCG (ECHCG (Barnyardgrass); rate 0.0313 kg/ha): 3.0
- Herbicidal rating ECHCG (ECHCG (Barnyardgrass); rate 0.0625 kg/ha): 3.0
- Herbicidal rating ECHCG (ECHCG (Barnyardgrass); rate 0.1250 kg/ha): 3.0
- Herbicidal rating SETVI (SETVI (Foxtail, Green); rate 0.0156 kg/ha): 4.0
- Herbicidal rating SETVI (SETVI (Foxtail, Green); rate 0.0313 kg/ha): 7.0
- Herbicidal rating SETVI (SETVI (Foxtail, Green); rate 0.0625 kg/ha): 9.0
- Herbicidal rating SETVI (SETVI (Foxtail, Green); rate 0.1250 kg/ha): 6.0
- Herbicidal rating ORYSAT (ORYSAT (Rice, Tebonnet); rate 0.0156 kg/ha): 2.5
- Herbicidal rating ORYSAT (ORYSAT (Rice, Tebonnet); rate 0.0313 kg/ha): 4.0
- Herbicidal rating ORYSAT (ORYSAT (Rice, Tebonnet); rate 0.0625 kg/ha): 5.0
- Herbicidal rating ORYSAT (ORYSAT (Rice, Tebonnet); rate 0.1250 kg/ha): 5.0
- Preemergence herbicidal rating IPOHE ([1]; 0.0156 kg/ha): 4.0
- Preemergence herbicidal rating IPOHE ([1]; 0.0313 kg/ha): 9.0
- Preemergence herbicidal rating IPOHE ([1]; 0.0625 kg/ha): 9.0
- Preemergence herbicidal rating IPOHE ([1]; 0.1250 kg/ha): 9.0
- Preemergence herbicidal rating IPOHE ([1]; 0.2500 kg/ha): 9.0
- Preemergence herbicidal rating IPOHE ([1]; 0.5000 kg/ha): 9.0
- Preemergence herbicidal rating TRZAWR ([2]; 0.0156 kg/ha): 1.0
- Preemergence herbicidal rating TRZAWR ([2]; 0.0313 kg/ha): 1.0
- Preemergence herbicidal rating TRZAWR ([2]; 0.0625 kg/ha): 4.0
- Preemergence herbicidal rating TRZAWR ([2]; 0.1250 kg/ha): 6.0
- Preemergence herbicidal rating TRZAWR ([2]; 0.2500 kg/ha): 7.0
- Preemergence herbicidal rating TRZAWR ([2]; 0.5000 kg/ha): 9.0
- Preemergence herbicidal rating ZEAMX (ZEAMX (Corn, Field); 0.0156 kg/ha): 2.0
- Preemergence herbicidal rating ZEAMX (ZEAMX (Corn, Field); 0.0313 kg/ha): 3.0
- Preemergence herbicidal rating ZEAMX (ZEAMX (Corn, Field); 0.0625 kg/ha): 6.0
- Preemergence herbicidal rating ZEAMX (ZEAMX (Corn, Field); 0.1250 kg/ha): 7.0
- Preemergence herbicidal rating ZEAMX (ZEAMX (Corn, Field); 0.2500 kg/ha): 8.0
- Preemergence herbicidal rating ZEAMX (ZEAMX (Corn, Field); 0.5000 kg/ha): 9.0
- herbicidal effect rating, ECHORC ([3]; 0.0313 kg/ha): 6.0
- herbicidal effect rating, ECHORC ([3]; 0.0625 kg/ha): 7.0
- herbicidal effect rating, ECHORC ([3]; 0.1250 kg/ha): 9.0
- herbicidal effect rating, ECHORC ([3]; 0.2500 kg/ha): 9.0
- herbicidal effect rating, CYPIR (CYPIR (Rice Flatsedge); 0.0313 kg/ha): 3.0
- herbicidal effect rating, CYPIR (CYPIR (Rice Flatsedge); 0.0625 kg/ha): 5.0
- herbicidal effect rating, CYPIR (CYPIR (Rice Flatsedge); 0.1250 kg/ha): 6.0
- herbicidal effect rating, CYPIR (CYPIR (Rice Flatsedge); 0.2500 kg/ha): 9.0
- herbicidal effect rating, MOOVA (MOOVA (Monochoria); 0.0313 kg/ha): 8.0
- herbicidal effect rating, MOOVA (MOOVA (Monochoria); 0.0625 kg/ha): 9.0
- herbicidal effect rating, MOOVA (MOOVA (Monochoria); 0.1250 kg/ha): 9.0
- herbicidal effect rating, MOOVA (MOOVA (Monochoria); 0.2500 kg/ha): 9.0
